# Tests used:
# [1] = Cytotoxicity against mouse EAC cells assessed as non-viable cells at 25 ug/ml after 2 hrs by trypan blue exclusion; format: functional, Ehrlich
# [2] = Cytotoxicity against mouse EAC cells assessed as non-viable cells at 50 ug/ml after 2 hrs by trypan blue exclusion; format: functional, Ehrlich
# [3] = Cytotoxicity against mouse EAC cells assessed as non-viable cells at 100 ug/ml after 2 hrs by trypan blue exclusion; format: functional, Ehrlich
# [4] = Cytotoxicity against mouse EAC cells after 2 hrs by trypan blue exclusion; format: functional, cell-based; conditions: ehrlich
# [5] = Cytotoxicity against mouse EAC cells assessed as non-viable cells at 10 ug/ml after 2 hrs by trypan blue exclusion; format: functional, Ehrlich
SMILES,Activity [1] [%],Activity [2] [%],Activity [3] [%],IC50 [4] [µg/mL],Activity [5] [%]
N#CC1=C(N)N(c2ccc(S(N)(=O)=O)cc2)C2=C(C(=O)CCC2)C1c1ccc(Cl)cc1Cl (stereo not given),50,65,95,25,40
N#CC1=C(NS(=O)(=O)c2ccc([N+](=O)[O-])cc2)N(c2ccc(S(N)(=O)=O)cc2)C2=C(C(=O)CCC2)C1c1ccc(Cl)cc1Cl (stereo not given),85,85,90,20,50
N=c1c2c([nH]c(=S)n1-c1ccccc1)N(c1ccc(S(N)(=O)=O)cc1)C1=C(C(=O)CCC1)C2c1ccc(Cl)cc1Cl (stereo not given),30,50,60,50,10
CCCCn1c(=S)[nH]c2c(c1=N)C(c1ccc(Cl)cc1Cl)C1=C(CCCC1=O)N2c1ccc(S(N)(=O)=O)cc1 (stereo not given),70,80,80,7,70
N#CC1=C(NC(=S)Nc2ccc(Cl)cc2)N(c2ccc(S(N)(=O)=O)cc2)C2=C(C(=O)CCC2)C1c1ccc(Cl)cc1Cl (stereo not given),60,100,100,40,30
C=CCNC(=S)NC1=C(C#N)C(c2ccc(Cl)cc2Cl)C2=C(CCCC2=O)N1c1ccc(S(N)(=O)=O)cc1 (stereo not given),30,33,40,> 100,10
N#CC1=C(NS(=O)(=O)c2ccc(Br)cc2)N(c2ccc(S(N)(=O)=O)cc2)C2=C(C(=O)CCC2)C1c1ccc(Cl)cc1Cl (stereo not given),90,90,100,5.5,90
N=c1c2c([nH]c(=S)n1-c1ccc(Br)cc1)N(c1ccc(S(N)(=O)=O)cc1)C1=C(C(=O)CCC1)C2c1ccc(Cl)cc1Cl (stereo not given),30,50,70,50,30
N#CC1=C(N2C(=O)CCC2=O)N(c2ccc(S(N)(=O)=O)cc2)C2=C(C(=O)CCC2)C1c1ccc(Cl)cc1Cl (stereo not given),50,70,90,25,20
NS(=O)(=O)c1ccc(N2C3=C(C(=O)CCC3)C(c3ccc(Cl)cc3Cl)c3c2[nH]c(=S)[nH]c3=S)cc1 (stereo not given),30,39,57,> 100,11
Nc1nc(=S)[nH]c2c1C(c1ccc(Cl)cc1Cl)C1=C(CCCC1=O)N2c1ccc(S(N)(=O)=O)cc1 (stereo not given),50,100,100,25,30
N#CC1=C(NC(N)=O)N(c2ccc(S(N)(=O)=O)cc2)C2=C(C(=O)CCC2)C1c1ccc(Cl)cc1Cl (stereo not given),35,40,60,75,20
N#CC1=C(NC(=O)CCC(=O)O)N(c2ccc(S(N)(=O)=O)cc2)C2=C(C(=O)CCC2)C1c1ccc(Cl)cc1Cl (stereo not given),35,50,60,50,20
Nc1nc(=O)[nH]c2c1C(c1ccc(Cl)cc1Cl)C1=C(CCCC1=O)N2c1ccc(S(N)(=O)=O)cc1 (stereo not given),80,90,100,6.9,80
N=c1c2c([nH]c(=S)n1-c1ccc(Cl)cc1)N(c1ccc(S(N)(=O)=O)cc1)C1=C(C(=O)CCC1)C2c1ccc(Cl)cc1Cl (stereo not given),60,90,95,10,50
N#CC1=C(NC(=S)Nc2ccccc2)N(c2ccc(S(N)(=O)=O)cc2)C2=C(C(=O)CCC2)C1c1ccc(Cl)cc1Cl (stereo not given),50,55,95,25,40
CCCCNC(=S)NC1=C(C#N)C(c2ccc(Cl)cc2Cl)C2=C(CCCC2=O)N1c1ccc(S(N)(=O)=O)cc1 (stereo not given),30,35,40,> 100,30
N#CC1=C(NC(=S)Nc2ccc(Br)cc2)N(c2ccc(S(N)(=O)=O)cc2)C2=C(C(=O)CCC2)C1c1ccc(Cl)cc1Cl (stereo not given),50,90,90,25,50
COc1cccc2c1C(=O)c1c(O)c3c(c(O)c1C2=O)C[C@@](O)(C(=O)CO)C[C@@H]3O[C@H]1C[C@H](N)[C@H](O)[C@H](C)O1 [DOXORUBICIN],32,68,100,38,19
C=CCn1c(=S)[nH]c2c(c1=N)C(c1ccc(Cl)cc1Cl)C1=C(CCCC1=O)N2c1ccc(S(N)(=O)=O)cc1 (stereo not given),40,50,75,50,30

# From ChEMBL document CHEMBL1154730, “Novel quinolines and pyrimido[4,5-b]quinolines bearing biologically active sulfonamide moiety as a new class of antitumor agents” (Eur J Med Chem, 2010)
